Data: patent publication US20260325533A1, “CDK INHIBITOR COMPOUNDS” (ALEKSIA THERAPEUTICS, INC., priority 2023, published 2026)
Read-outs that look alike come from different tables or passages of the source.

How the values were obtained:
Type in all cases: biochemical
[1] = molecular target: CDK2/CCNE1 (Homo sapiens, UniProt P24941); experiment: CDK2 homogeneous time-resolved fluorescence (HTRF) kinase assay; settings: CDK2/CCNE
Method in brief: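 TR-FRET read-out (665 nm, or 665/615 ratio) of Eu-antibody detection of phospho-4E-BP1 (Thr37/46) ULight peptide. Enzyme 3 nM, ATP 1 mM, peptide 50 nM, 1% DMSO; 60 min reaction at 23 °C after 20 min compound preincubation. IC50 from 11-point half-log titrations, top typically 10 μM.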

[2] = molecular target: CDK1/CCNB1 (Homo sapiens, UniProt P06493); experiment: CDK1 homogeneous time-resolved fluorescence (HTRF) kinase assay; settings: CDK1/CCNB
Sequence of CDK1/CCNB1 (P06493 whole entry): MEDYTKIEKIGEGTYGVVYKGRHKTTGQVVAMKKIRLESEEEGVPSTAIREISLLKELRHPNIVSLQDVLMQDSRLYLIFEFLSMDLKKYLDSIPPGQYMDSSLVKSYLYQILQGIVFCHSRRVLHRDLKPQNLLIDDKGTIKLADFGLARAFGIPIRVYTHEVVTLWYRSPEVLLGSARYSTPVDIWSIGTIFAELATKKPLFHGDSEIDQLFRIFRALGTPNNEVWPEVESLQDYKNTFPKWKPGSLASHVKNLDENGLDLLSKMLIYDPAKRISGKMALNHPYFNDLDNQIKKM
Sequence of CDK1/CCNB1 (P14635 whole entry partner): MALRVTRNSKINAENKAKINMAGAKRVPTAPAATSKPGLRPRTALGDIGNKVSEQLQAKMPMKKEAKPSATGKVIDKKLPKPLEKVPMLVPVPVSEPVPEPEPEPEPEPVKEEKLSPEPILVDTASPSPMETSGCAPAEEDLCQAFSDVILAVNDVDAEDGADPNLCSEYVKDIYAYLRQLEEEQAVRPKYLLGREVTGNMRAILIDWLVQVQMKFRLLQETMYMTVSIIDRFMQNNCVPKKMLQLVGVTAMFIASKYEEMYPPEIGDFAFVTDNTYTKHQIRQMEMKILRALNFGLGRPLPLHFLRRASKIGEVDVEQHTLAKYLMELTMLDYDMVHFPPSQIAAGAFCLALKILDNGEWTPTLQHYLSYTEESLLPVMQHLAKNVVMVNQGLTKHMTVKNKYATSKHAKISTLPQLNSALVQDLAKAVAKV
Method in brief: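 Compounds, titrated 11 points in half-log steps typically from 10 μM, were incubated with enzyme for 20 min before ATP (1 mM) and ULight-labelled eIF4E-binding protein 1 peptide (50 nM) started a 60-min reaction at 23 °C. Phosphopeptide was detected by europium-antibody TR-FRET and IC50 values were derived.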

[3] = molecular target: CDK4/CCND3 (Homo sapiens, UniProt P11802); experiment: CDK4 homogeneous time-resolved fluorescence (HTRF) kinase assay; settings: CDK4/CCND
Sequence of CDK4/CCND3 (P11802 whole entry): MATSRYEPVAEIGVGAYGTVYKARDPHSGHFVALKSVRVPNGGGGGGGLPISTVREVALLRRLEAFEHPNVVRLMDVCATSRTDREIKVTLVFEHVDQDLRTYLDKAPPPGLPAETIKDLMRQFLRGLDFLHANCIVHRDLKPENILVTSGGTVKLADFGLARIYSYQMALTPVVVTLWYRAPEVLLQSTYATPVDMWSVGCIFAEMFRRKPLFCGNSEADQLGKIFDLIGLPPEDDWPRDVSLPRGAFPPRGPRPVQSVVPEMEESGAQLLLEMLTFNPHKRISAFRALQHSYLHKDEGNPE
Sequence of CDK4/CCND3 (P30281 whole entry partner): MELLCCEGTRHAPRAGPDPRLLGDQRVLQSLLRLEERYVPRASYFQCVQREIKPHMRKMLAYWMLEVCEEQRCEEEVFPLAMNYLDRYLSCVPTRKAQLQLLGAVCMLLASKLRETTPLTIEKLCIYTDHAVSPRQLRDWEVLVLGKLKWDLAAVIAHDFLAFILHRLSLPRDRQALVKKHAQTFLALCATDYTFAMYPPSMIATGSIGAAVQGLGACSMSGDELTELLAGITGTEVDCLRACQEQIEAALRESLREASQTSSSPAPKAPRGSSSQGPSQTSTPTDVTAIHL
Method in brief: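 TR-FRET read (665 nm, or 665/615 ratio) of 4E-BP1 Thr37/46 phosphorylation by 1.5 nM CDK4/CCND3 at 1 mM ATP, 50 nM ULight peptide, 1% DMSO. Reaction ran 60 min at 23 °C after 20 min compound–enzyme preincubation. IC50 from 11-point half-log dilutions, top 10 μM.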

[4] = molecular target: CDK6/CCND1 (Homo sapiens, UniProt Q00534); experiment: CDK6 homogeneous time-resolved fluorescence (HTRF) kinase assay; settings: CDK6/CCND
Sequence of CDK6/CCND1 (Q00534 whole entry): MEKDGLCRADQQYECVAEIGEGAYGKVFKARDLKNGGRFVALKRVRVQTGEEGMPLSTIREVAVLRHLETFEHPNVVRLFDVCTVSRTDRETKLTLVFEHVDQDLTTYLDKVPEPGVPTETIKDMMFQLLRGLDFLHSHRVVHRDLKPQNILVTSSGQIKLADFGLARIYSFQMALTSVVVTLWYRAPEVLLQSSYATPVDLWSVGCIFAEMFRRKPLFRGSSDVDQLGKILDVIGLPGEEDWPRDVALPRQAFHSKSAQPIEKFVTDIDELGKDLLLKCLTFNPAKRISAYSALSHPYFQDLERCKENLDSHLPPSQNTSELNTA
Sequence of CDK6/CCND1 (P24385 whole entry partner): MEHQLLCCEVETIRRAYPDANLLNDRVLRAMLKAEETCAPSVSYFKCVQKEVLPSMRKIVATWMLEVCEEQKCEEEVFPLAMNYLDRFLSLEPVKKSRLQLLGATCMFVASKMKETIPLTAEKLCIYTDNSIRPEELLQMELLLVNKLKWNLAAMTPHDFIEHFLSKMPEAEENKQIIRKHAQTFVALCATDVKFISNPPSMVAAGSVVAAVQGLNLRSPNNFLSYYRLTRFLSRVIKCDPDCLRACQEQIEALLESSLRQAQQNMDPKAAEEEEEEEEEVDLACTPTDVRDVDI
Method in brief: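 Assay conditions: HEPES buffer containing 10 mM MgCl2, 1 mM EGTA, 2 mM DTT, 0.01% Tween 20; 1 nM CDK6/CCND1, 50 nM peptide substrate, 1 mM ATP. Detection after 60 min reaction used 2 nM europium antibody with 340 nm excitation. Potency fitted from half-log series, 11 points.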

[5] = x = IC50 25-250 nM, read-out: CDK2/CCNE IC50 (25-250 nM)
[6] = x = IC50 >250 nM, read-out: CDK1/CCNB IC50 (>250 nM column)
[7] = x = IC50 >250 nM, read-out: CDK4/CCND IC50 (>250 nM column)
[8] = x = IC50 >250 nM, read-out: CDK6/CCND IC50 (>250 nM column)
[9] = x = IC50 <25 nM, read-out: CDK2/CCNE IC50 (<25 nM)
[10] = x = IC50 25-250 nM, read-out: CDK1/CCNB IC50 (25-250 nM)
[11] = x = IC50 <25 nM, read-out: CDK4/CCND IC50 (<25 nM)
[12] = x = IC50 25-250 nM, read-out: CDK6/CCND IC50 (25-250 nM)
[13] = x = IC50 25-250 nM, read-out: CDK4/CCND IC50 (25-250 nM)
[14] = 25-250 nM, read-out: CDK2/CCNE IC50, 25-250 nM
[15] = >250 nM, read-out: CDK1/CCNB IC50 >250 nM
[16] = >250 nM, read-out: CDK4/CCND IC50, >250 nM
[17] = >250 nM, 1 mM ATP, read-out: CDK6/CCND IC50, >250 nM
[18] = <25 nM, read-out: CDK2/CCNE IC50, <25 nM
[19] = 25-250 nM, read-out: CDK4/CCND IC50, 25-250 nM
[20] = 25-250 nM, 1 mM ATP, read-out: CDK6/CCND IC50, 25-250 nM

Structure (SMILES)	IC50 [3, 7] [nM]	IC50 [4, 8] [nM]	IC50 [1, 9] [nM]	IC50 [2, 10] [nM]	IC50 [4, 12] [nM]	IC50 [2, 15] [nM]	also measured
N=S(=O)(c1ccc(Nc2cc3c(C#Cc4cccnc4N)nccc3cn2)cc1)C1CC1 (single isomer, unassigned) [Ex 417, (4-((5-((2-aminopyridin-3-yl)ethynyl)-2,6-naphthyridin-3-yl)amino)phenyl)(cyclopropyl)(imino)-l6-sulfanone]	> 250	> 250					IC50 [1, 5]: 25 to 250 nM; IC50 [2, 6]: > 250 nM
CCC1(CC)C(=O)Nc2cc(C#Cc3nccc4cnc(Nc5ccc(S(C)(=N)=O)cc5)cc34)ccc21 (single isomer, unassigned) [Ex 426, 3,3-diethyl-6-((7-((4-(S-methylsulfonimidoyl)phenyl)amino)-2,6-naphthyridin-1-yl)ethynyl)indolin-2-one]	> 250	> 250	< 25	25 to 250			
CC1(C)C(=O)Nc2cc(C#Cc3nccc4cnc(Nc5ccc(S(=N)(=O)C6CC6)cc5)cc34)ccc21 (single isomer, unassigned) [Ex 437, 6-((7-((4-(cyclopropanesulfonimidoyl)phenyl)amino)-2,6-naphthyridin-1-yl)ethynyl)-3,3-dimethylindolin-2-one]			< 25	25 to 250	25 to 250		IC50 [3, 11]: < 25 nM
CC1(C)C(=O)Nc2cc(C#Cc3nccc4cnc(Nc5ccc(S(C)(=N)=O)cc5)cc34)ccc21 (single isomer, unassigned) [Ex 451, 3,3-dimethyl-6-((7-((4-(S-methylsulfonimidoyl)phenyl)amino)-2,6-naphthyridin-1-yl)ethynyl)indolin-2-one]		> 250	< 25	25 to 250			IC50 [3, 13]: 25 to 250 nM
CC(C)S(=N)(=O)c1ccc(Nc2cc3c(C#Cc4ccc5c(c4)NC(=O)C5(C)C)nccc3cn2)cc1 (single isomer, unassigned) [Ex 455, 3,3-dimethyl-6-((7-((4-(propan-2-ylsulfonimidoyl)phenyl)amino)-2,6-naphthyridin-1-yl)ethynyl)indolin-2-one]			< 25	25 to 250	25 to 250		IC50 [3, 13]: 25 to 250 nM; IC50 [3, 11]: < 25 nM
CCS(=N)(=O)c1ccc(Nc2cc3c(C#Cc4ccc5c(c4)NC(=O)C5(C)C)nccc3cn2)cc1 (single isomer, unassigned) [Ex 462, 6-((7-((4-(ethylsulfonimidoyl)phenyl)amino)-2,6-naphthyridin-1-yl)ethynyl)-3,3-dimethylindolin-2-one]			< 25	25 to 250	25 to 250		IC50 [3, 13]: 25 to 250 nM
CCS(=N)(=O)c1ccc(Nc2cc3c(C#Cc4cccnc4N)nccc3cn2)cc1 (single isomer, unassigned) [Ex 474, (4-((5-((2-aminopyridin-3-yl)ethynyl)-2,6-naphthyridin-3-yl)amino)phenyl)(ethyl)(imino)-l6-sulfanone]	> 250	> 250					IC50 [1, 5]: 25 to 250 nM; IC50 [2, 6]: > 250 nM
CS(=N)(=O)c1ccc(Nc2cc3c(C#Cc4cccnc4N)nccc3cn2)cc1 (single isomer, unassigned) [Ex 480, (4-((5-((2-aminopyridin-3-yl)ethynyl)-2,6-naphthyridin-3-yl)amino)phenyl)(imino)(methyl)-l6-sulfanone]	> 250	> 250					IC50 [1, 5]: 25 to 250 nM; IC50 [2, 6]: > 250 nM
CC(O)CN1CCC(C#Cc2nccc3cnc(Nc4ccc(S(C)(=O)=O)cc4)cc23)CC1 (single isomer, unassigned) [Ex 607, 1-(4-((7-((4-(methylsulfonyl)phenyl)amino)-2,6-naphthyridin-1-yl)ethynyl)piperidin-1-yl)propan-2-ol]	> 250		< 25		25 to 250		IC50 [2, 6]: > 250 nM
Cc1c(-c2nccc3cnc(Nc4ccc(S(=N)(N)=O)cc4)cc23)ccc2c1cnn2CC(O)(C(F)(F)F)C(F)(F)F (single isomer, unassigned) [Ex 679, 4-((5-(4-methyl-1-(3,3,3-trifluoro-2-hydroxy-2-(trifluoromethyl)propyl)-1H-indazol-5-yl)-2,6-naphthyridin-3-yl)amino)benzenesulfonimidamide]			< 25	25 to 250	25 to 250		IC50 [3, 13]: 25 to 250 nM
Cc1c(-c2nccc3cnc(Nc4ccc(S(=N)(=O)NC5CCC5)cc4)cc23)ccc2c1cnn2CC(O)(C(F)(F)F)C(F)(F)F (single isomer, unassigned) [Ex 680, N-cyclobutyl-4-((5-(4-methyl-1-(3,3,3-trifluoro-2-hydroxy-2-(trifluoromethyl)propyl)-1H-indazol-5-yl)-2,6-naphthyridin-3-yl)amino)benzenesulfonimidamide]						> 250	IC50 [1, 14]: 25 to 250 nM; IC50 [3, 16]: > 250 nM; IC50 [4, 17]: > 250 nM
Cc1c(-c2nccc3cnc(Nc4ccc(S(=N)(=O)NC5CC5)cc4)cc23)ccc2c1cnn2CC(O)(C(F)(F)F)C(F)(F)F (single isomer, unassigned) [Ex 681, N-cyclopropyl-4-((5-(4-methyl-1-(3,3,3-trifluoro-2-hydroxy-2-(trifluoromethyl)propyl)-1H-indazol-5-yl)-2,6-naphthyridin-3-yl)amino)benzenesulfonimidamide]						> 250	IC50 [1, 18]: < 25 nM; IC50 [3, 19]: 25 to 250 nM; IC50 [4, 17]: > 250 nM
CNS(=N)(=O)c1ccc(Nc2cc3c(-c4ccc5c(cnn5CC(O)(C(F)(F)F)C(F)(F)F)c4C)nccc3cn2)cc1 (single isomer, unassigned) [Ex 683, N-methyl-4-((5-(4-methyl-1-(3,3,3-trifluoro-2-hydroxy-2-(trifluoromethyl)propyl)-1H-indazol-5-yl)-2,6-naphthyridin-3-yl)amino)benzenesulfonimidamide]						> 250	IC50 [1, 18]: < 25 nM; IC50 [3, 19]: 25 to 250 nM; IC50 [4, 20]: 25 to 250 nM
Cc1c(-c2nccc3cnc(Nc4ccc(S(=N)(=O)Nc5ccccc5)cc4)cc23)ccc2c1cnn2CC(O)(C(F)(F)F)C(F)(F)F (single isomer, unassigned) [Ex 685, 4-((5-(4-methyl-1-(3,3,3-trifluoro-2-hydroxy-2-(trifluoromethyl)propyl)-1H-indazol-5-yl)-2,6-naphthyridin-3-yl)amino)-N-phenylbenzenesulfonimidamide]						> 250	IC50 [1, 14]: 25 to 250 nM; IC50 [3, 16]: > 250 nM; IC50 [4, 17]: > 250 nM
CC1(C)C(=O)Nc2cc(C#Cc3nccc4cnc(Nc5ccc(S(=N)(=O)NC6CCC6)cc5)cc34)ccc21 (single isomer, unassigned) [Ex 688, N-cyclobutyl-4-((5-((3,3-dimethyl-2-oxoindolin-6-yl)ethynyl)-2,6-naphthyridin-3-yl)amino)benzenesulfonimidamide]						> 250	IC50 [1, 18]: < 25 nM; IC50 [3, 19]: 25 to 250 nM; IC50 [4, 20]: 25 to 250 nM
CCNS(=N)(=O)c1ccc(Nc2cc3c(-c4ccc5c(cnn5CC(O)(C(F)(F)F)C(F)(F)F)c4C)nccc3cn2)cc1 (single isomer, unassigned) [Ex 692, N-ethyl-4-((5-(4-methyl-1-(3,3,3-trifluoro-2-hydroxy-2-(trifluoromethyl)propyl)-1H-indazol-5-yl)-2,6-naphthyridin-3-yl)amino)benzenesulfonimidamide]						> 250	IC50 [1, 18]: < 25 nM; IC50 [3, 19]: 25 to 250 nM; IC50 [4, 20]: 25 to 250 nM
